Experimental data published in ChEMBL document CHEMBL1135166, “Synthesis of triazole-Tethered pyrrolidine libraries: novel ECE inhibitors” (Bioorg Med Chem Lett, 2002).

Target: T1, Endothelin-converting enzyme 1 (Homo sapiens, UniProt P42892)
T1 sequence (P42892 whole entry): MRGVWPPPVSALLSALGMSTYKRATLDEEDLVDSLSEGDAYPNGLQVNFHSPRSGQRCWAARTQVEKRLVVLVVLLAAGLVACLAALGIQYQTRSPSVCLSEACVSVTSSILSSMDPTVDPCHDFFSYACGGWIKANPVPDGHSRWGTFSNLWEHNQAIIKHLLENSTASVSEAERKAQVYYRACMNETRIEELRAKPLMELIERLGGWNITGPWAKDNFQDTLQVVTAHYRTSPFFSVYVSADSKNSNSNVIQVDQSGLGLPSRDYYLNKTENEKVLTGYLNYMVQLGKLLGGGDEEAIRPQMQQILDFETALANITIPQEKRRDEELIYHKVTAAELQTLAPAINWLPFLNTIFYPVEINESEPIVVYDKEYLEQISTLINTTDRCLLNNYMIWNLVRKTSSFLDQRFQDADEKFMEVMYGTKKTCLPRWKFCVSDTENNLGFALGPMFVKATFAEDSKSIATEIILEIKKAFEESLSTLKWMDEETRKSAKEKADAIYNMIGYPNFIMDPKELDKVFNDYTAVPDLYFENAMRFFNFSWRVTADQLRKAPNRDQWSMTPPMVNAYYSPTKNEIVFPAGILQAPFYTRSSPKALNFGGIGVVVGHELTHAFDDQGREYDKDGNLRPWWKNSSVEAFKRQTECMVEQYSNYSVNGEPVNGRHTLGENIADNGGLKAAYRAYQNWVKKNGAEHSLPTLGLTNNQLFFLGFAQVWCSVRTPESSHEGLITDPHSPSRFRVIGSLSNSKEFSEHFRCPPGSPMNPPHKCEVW
Assay: (§1) Tested for inhibitory concentration against human Endothelin-converting enzyme 1 at 10 uM

Row | SMILES | IC50
1 | CSc1nnc([C@@H]2C[C@@H](S)CN2S(=O)(=O)c2ccc3ccccc3c2)n1Cc1ccc(F)cc1 | 150 nM
2 | CCCc1ccc(S(=O)(=O)N2C[C@H](S)C[C@H]2c2nnc(SC)n2-c2ccccc2)cc1 | 1200 nM
3 | CSc1nnc([C@@H]2C[C@@H](S)CN2S(=O)(=O)c2ccc3ccccc3c2)n1-c1ccc(F)c(Cl)c1 | 1200 nM
4 | O=S(=O)(c1ccc2ccccc2c1)N1C[C@H](S)C[C@H]1c1nnc(SCC2CC2)n1-c1ccccc1 | 700 nM
5 | CSc1nnc([C@@H]2C[C@@H](S)CN2S(=O)(=O)c2ccc(C)cc2)n1-c1ccccc1 | 4400 nM
6 | CSc1nnc([C@@H]2C[C@@H](S)CN2S(=O)(=O)c2ccc(Cl)cc2)n1-c1ccccc1 | 1200 nM
7 | CSc1nnc([C@@H]2C[C@@H](S)CN2S(C)(=O)=O)n1-c1ccccc1 | 15500 nM
8 | CC(C)CSc1nnc([C@@H]2C[C@@H](S)CN2S(=O)(=O)c2ccc3ccccc3c2)n1-c1ccccc1 | 720 nM
9 | CSc1nnc([C@@H]2C[C@@H](S)CN2S(=O)(=O)c2ccc3ccccc3c2)n1-c1c(F)c(F)cc(F)c1F | 250 nM
10 | CSc1nnc([C@@H]2C[C@@H](S)CN2S(=O)(=O)c2ccc(F)cc2)n1-c1ccccc1 | 8950 nM
11 | CSc1nnc([C@@H]2C[C@@H](S)CN2S(=O)(=O)c2ccc(C(F)(F)F)cc2)n1-c1ccccc1 | 1300 nM
12 | CSc1nnc([C@@H]2C[C@@H](S)CN2S(=O)(=O)c2ccc3ccccc3c2)n1-c1ccc(C(F)(F)F)cc1 | 360 nM
13 | CSc1nnc([C@@H]2C[C@@H](S)CN2C(=O)Nc2ccc(F)cc2)n1-c1ccccc1 | 17700 nM
14 | CSc1nnc([C@@H]2C[C@@H](S)CN2S(=O)(=O)c2ccc3ccccc3c2)n1-c1ccccc1 | 500 nM
15 | CCCCOC(=O)N1C[C@H](S)C[C@H]1c1nnc(SC)n1-c1ccccc1 | 2700 nM
16 | CCCSc1nnc([C@@H]2C[C@@H](S)CN2S(=O)(=O)c2ccc3ccccc3c2)n1-c1ccccc1 | 280 nM

Target: T2, Endothelin-converting enzyme 1 (Homo sapiens) (UniProt P42892)
T2 sequence (whole entry): T1 sequence (P42892 whole entry)
Assay: as §1

Row | SMILES | inhibition
17 | CSc1nnc([C@@H]2C[C@@H](S)CN2S(=O)(=O)N(C)C)n1-c1ccccc1 | 28%
18 | CSc1nnc([C@@H]2C[C@@H](S)CN2S(=O)(=O)c2ccc3ccccc3c2)n1C | 43%
